The source made the active and inactive calls. How the calls were made is not given here. Some results are limits rather than exact numbers.

The experiment concerns Ga16-expressing cells (no TAAR1), calcium fluorescence, counterscreen. As to the kind of experiment: nonselective Ga16 agonists, potency, late-stage follow-up, counter-screen for TAAR1 agonist project, cell-based, fluorescence, dose response (AID 743232). (In general: Counterscreens check selectivity or assay interference.)
As for `c1ccc2c3c([nH]c2c1)CCNC3`, the EC50 is > 29.9 µM (inactive).

On to `O=C(Nc1cccc2ccccc12)N1CCc2ccccc2C1`, for which the EC50 was > 29.9 µM (inactive).

Consider `c1ccc(CCn2nnnc2C(c2cccs2)N2CCN(Cc3ccc4c(c3)OCO4)CC2)cc1` (stereo unspecified), for which the EC50 is > 29.9 µM (inactive).

Take `OCCNc1nc(Nc2cccc(O)c2)nc2ccccc12`: the EC50 was > 29.9 µM (inactive).

Turning to `Cc1cc(N(C)C)nc(Nc2ccccc2)n1`, the EC50 is > 29.9 µM (inactive).

On to `OCCNc1nc(Nc2ccc(O)cc2)nc2ccccc12`, for which the EC50 is > 29.9 µM (inactive).

With `O=C(Nc1cccnc1)Nc1cccc(F)c1`, the EC50 was > 29.9 µM (inactive).

In the case of `CC(=C1C(=O)c2ccccc2C1=O)N1CCc2ccccc2C1`, the EC50 was > 29.9 µM (inactive).

For `O=c1[nH]cc(NCCc2ccccc2)c(=O)[nH]1`, the EC50 was > 29.9 µM (inactive).

As for `O=C(CCN1CCC(c2ccccc2)C1)c1ccc2c(c1)OCCO2` (stereo unspecified), the EC50 was > 29.9 µM (inactive).

As for `c1ccc(CCN2CN(CCCN3CCOCC3)c3nc4ccccc4n3C2)cc1`, the EC50 was > 29.9 µM (inactive).

With `CCOC(=O)C(NC(=O)CC)(N1CCc2ccccc2C1)C(F)(F)F` (stereo unspecified), the EC50 is > 29.9 µM (inactive).

As for `Cc1cc(C)n(C(CC(=O)N2CCc3ccccc3C2)C(=O)O)n1` (stereo unspecified), the EC50 was > 29.9 µM (inactive).

For `CCOC(=O)C(NC(C)=O)(N1CCc2ccccc2C1)C(F)(F)F` (stereo unspecified), the EC50 is > 29.9 µM (inactive).

In the case of `O=C(Nc1ccncc1)Nc1ccc(F)cc1`, the EC50 was > 29.9 µM (inactive).

As to `Cc1ccc(NC(=O)CCN2CCc3ccccc3C2)cc1`, the EC50 is > 29.9 µM (inactive).

Take `CC(=NCCc1ccccc1)C1CCOC1=O` (stereo unspecified): the EC50 is > 29.9 µM (inactive).

For `Nc1nc(Nc2ccccc2)nc2ccccc12`, the EC50 is > 29.9 µM (inactive).

On to `c1ccc2c(c1)CCN(c1nc3cc4c(cc3s1)OCO4)C2`, for which the EC50 is > 29.9 µM (inactive).

Regarding `NC(N)=NN=Cc1c(Cl)cccc1Cl`, the EC50 is > 29.9 µM (inactive).

`O=C(CCN1CCC(c2ccccc2)C1)c1cccs1` (stereo unspecified): the EC50 was > 29.9 µM (inactive).

Regarding `O=C(CCN1CCc2ccccc2CC1)c1ccc2c(c1)OCCO2`, the EC50 is > 29.9 µM (inactive).

Take `O=C(C(=O)N1CCc2ccccc2C1)c1cn(CC(=O)N2CCCCC2)c2ccccc12`: the EC50 is > 29.9 µM (inactive).

On to `Cc1[nH]c2ccccc2c1CN1CCc2ccccc2C1`, for which the EC50 was > 29.9 µM (inactive).

In the case of `NC(N)=Nc1cc2ccccc2c2ccccc12`, the EC50 was > 29.9 µM (inactive).

As to `O=C(Nc1ccccc1)Nc1ccncc1`, the EC50 was > 29.9 µM (inactive).

`COc1cc(C(=O)CCN2CCC(c3ccccc3)C2)cc(OC)c1OC` (stereo unspecified): the EC50 is > 29.9 µM (inactive).

For `Nc1nc(Nc2cccc(F)c2)nc2ccccc12`, the EC50 is > 29.9 µM (inactive).

As for `O=C(CCCCl)N1CCc2[nH]c3ccccc3c2C1`, the EC50 was > 29.9 µM (inactive).

Consider `CC1(C)CCCN(C(=O)c2coc(=O)c(Br)c2)C1`, for which the EC50 was > 29.9 µM (inactive).

Take `NCc1c(O)ccc2ccccc12`: the EC50 is > 29.9 µM (inactive).

One may read the EC50 as the midpoint of the concentration-response curve.

For the origin of these results see PubChem BioAssay AID743232 (The Scripps Research Institute Molecular Screening Center, 2013).
